Data published in patent US4198504A, “[3-(Pyridinium)-7-(naphthyiridinyl carbonylamino)acetamido]cephalosporanic acid derivatives” (Bristol-Myers Company, priority 1978, dated 1980).
In brackets after ≈: the same amount, converted by molar mass.

How the values were obtained:
[1] = test system: S. aureus; assay: In vitro MIC, serial two-fold agar dilution, primary evaluation Gp (S. aureus, 6 strains); type: cell-based; settings: CBPC = 100%; geometric mean of MICs; Mueller-Hinton agar
Method in brief: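 Two-fold serial agar dilution on Mueller-Hinton agar (Steers' replicator); GP group is 6 S. aureus strains. Values are relative activity versus carbenicillin (set at 100%), calculated from the geometric mean of the group's MICs.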

[2] = test system: E. coli (9), Klebsiella sp. (2), Pr. mirabilis (1), Sal. enteritidis (1); assay: In vitro MIC, serial two-fold agar dilution, primary evaluation Gn-I (E. coli, Klebsiella sp., Pr. mirabilis, Sal. enteritidis); type: cell-based; settings: CBPC = 100%; geometric mean of MICs; Mueller-Hinton agar
Method in brief: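 Two-fold serial agar dilution on Mueller-Hinton agar, inoculated with a Steers' replicator. Activity is expressed relative to carbenicillin set at 100%. Values are based on the geometric mean MIC per organism group.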

[3] = test system: Ent. cloacae (3), Pr. vulgaris (1), Pr. morganii (1), S. marcescen (1); assay: In vitro MIC, serial two-fold agar dilution, primary evaluation Gn-II (Ent. cloacae, Pr. vulgaris, Pr. morganii, S. marcescens); type: cell-based; settings: CBPC = 100%; geometric mean of MICs; Mueller-Hinton agar
Method in brief: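 MICs by two-fold serial agar dilution on Mueller-Hinton agar with a Steers replicator. Reported as activity relative to carbenicillin set at 100%, computed from geometric mean MICs over the strains in each group.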

[4] = test system: Ps. aeruginosa; assay: In vitro MIC, serial two-fold agar dilution, primary evaluation Ps (6 strains); type: cell-based; settings: CBPC = 100%; geometric mean of MICs; Mueller-Hinton agar
Method in brief: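 MIC by serial two-fold agar dilution on Mueller-Hinton agar (Steers' apparatus) against 6 Pseudomonas aeruginosa strains in primary screening. Values expressed as relative activity versus carbenicillin set at 100%, based on geometric mean MIC.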

[5] = test system: Pseudomonas aeruginosa; assay: In vitro MIC, serial two-fold agar dilution, secondary evaluation against Pseudomonas aeruginosa strains; type: cell-based; settings: CBPC = 100%; geometric mean of MICs; 61-64 strains
Method in brief: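 Two-fold serial agar dilution on Mueller-Hinton agar (Steers' apparatus) against 64 P. aeruginosa strains. Values are relative activity versus carbenicillin set at 100%, based on geometric mean MICs.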

[6] = test system: Staphylococcus aureus Smith; assay: In vivo efficacy, experimental infection in mice, intramuscular treatment, Staphylococcus aureus Smith; set-up: species or system Staphylococcus aureus (infected mice); settings: im, 120 h, I.M., 100×LD50 challenge i.p., 5 days, read-out: PD50 Staphylococcus aureus Smith
Protocol: (§1) The in vivo efficacy was evaluated by intramuscular treatment against three kinds of experimental infection in mice.
(§2) The in vivo tests were carried out using the following three pathogenic organisms:
Staphylococcus aureus Smith
(§3) Mice were challenged intraperitoneally with approximately a 100×LD50 dose of the pathogens in a 5% mucin suspension. The mice were treated with test compound by I.M. route immediately after the bacterial challenge.

[7] = test system: Pseudomonas aeruginosa A9843; assay: In vivo efficacy, experimental infection in mice, intramuscular treatment, Pseudomonas aeruginosa A9843; set-up: species or system Pseudomonas aeruginosa (infected mice); settings: A9843, im, 120 h, I.M., 100×LD50 challenge i.p., 5 days, read-out: PD50 Pseudomonas aeruginosa A9843
Protocol: as §1, §2
Pseudomonas aeruginosa A9843
as §3

[8] = Antibiotic blood levels in mice following intramuscular administration (paper disc-agar diffusion, Escherichia coli NIHJ as assay organism); type: in vivo; settings: mouse, im, I.M., 20 mg./kg.
Protocol: Antibiotic blood levels were determined in mice following intramuscular administration of the test compounds at 20 mg./kg. The blood samples were collected from the orbital sinuses into heparinized capillary tubes at 15, 30, 60 and 120 minutes after administration. The antibiotic concentration was determined by the paper disc-agar diffusion method using Escherichia coli NIHJ as the assay organism.

[9] = Solubility in water; type: physicochemical; settings: lyophilized product, read-out: dissolved readily in water to give a solution
Protocol: This unfortunate characteristic renders them unsuitable for use by intravenous administration. Acceptable solubility for such use is at least 125 mgm./ml. so that 250 mgm. can be administered in 2 ml. of sterile solution. Suspensions cannot, of course, be administered intravenously. […] The latter would make possible a dosage of 500 mgm. in a 2 ml. vial.
To a mixture of nicotinic acid (492 mg., 4 m.moles) and NaHCO3 (336 mg., 4 m.moles) in 2 ml. of water were added sodium 7-[D-α-(4-hydroxy-1,5-naphthyridine-3-carboxamido)-α-phenylacetamido]cephalosporanate^(3), (600 mg., 1 m.mole) and KSCN (2.4 g., 25 m.moles) and the mixture was allowed to stand overnight at 50°-52° C. The reaction mixture was placed on the top of an HP-20 column (.phi. 10 mm., 90 ml.). The column was developed with 1 L each of water, 30% aqueous MeOH and 50% aqueous MeOH. The eluate was collected in 20-ml. fractions, monitoring with tlc (silica-gel plate, CH3 CN:H2 O=4:1, detected with I2). The desired product was found in the fractions eluted with 30% aqueous MeOH, which were combined and concentrated under reduced pressure. The concentrates showing a neutral pH were lyophilized to give 105 mg. (16%) of BB-S606, which dissolved readily in water to give a 25% (w/v) solution. It started to melt around 280° C. with gradual decomposition.

With `O=C([O-])C1=C(C[n+]2cccc(C(=O)O)c2)CSC2C(NC(=O)[C@H](NC(=O)c3cnc4cccnc4c3O)c3ccccc3)C(=O)N12` (stereo partly drawn) [BB-S606, 7-[D-α-(4-Hydroxy-1,5-naphthyridine-3-carboxamido)-α-phenyl-acetamido]-3-(3-carboxypyridinium)methyl-3-cephem-4-carboxylate] the “In vitro relative activity, primary evaluation Gp (6)” value [1] was 45%, the “In vitro relative activity, primary evaluation Gn-I (13)” value [2] was 16% and the “In vitro relative activity, primary evaluation Gn-II (6)” value [3] was 11%. The “In vitro relative activity, primary evaluation Ps (6)” value [4] was 656%, the “In vitro relative activity, secondary, Pseudomonas aeruginosa (61-64)” value [5] was 624% and the ED50 [6] was 4.2 mg/kg. The ED50 [7] was 25 mg/kg, the half-life ([8]; read-out: Blood level, Half-life) was 55 min and the Cmax ([8]; read-out: Blood level, Peak Concentration) was 11000 ng/mL. It also gave a solubility [9] of 250 mg/mL (≈ 390 mM).
